# Data: PMC9866191, “Novel 9-Benzylaminoacridine Derivatives as Dual Inhibitors of Phosphodiesterase 5 and Topoisomerase II for the Treatment of Colon Cancer” (Molecules, 2023)
# How the values were obtained:
# PDE5A = target: T1, PDE5A (Homo sapiens, UniProt O76074); experiment: Phosphodiesterase 5 HTRF cGMP assay; assay type: biochemical; details: for IC50: means ± S.D. (n = 4), read-out: PDE5 IC50; for inhibition at 10 µM: read-out: PDE5 % Inhibition at 10 μM
# T1 construct: purchased BPS Bioscience, San Diego, CA, USA
# Protocol: All the synthesized acridine derivatives were tested for their in vitro ability to inhibit PDE5A at a screening dose of 10 µM.
# The enzyme activities of phosphodiesterase 5 (PDE5) were measured using an HTRF cGMP assay kit (Cisbio, Codolet, France). […] Afterward, the HTRF reagent (cGMP-d2 and anti-cGMP-cryptate) was added for 1 h at 25 °C, and PDE activity was assayed on an HTRF reader (Tecan Infinite F200 Pro).
# 786-0 = experiment: NCI-60 one-dose screen; assay type: cell-based; details: Homo sapiens; 786-0, Renal Cancer panel; single dose 10^−5 M; read-out: Growth inhibition %
# A498 = experiment: NCI-60 one-dose screen; assay type: cell-based; details: Homo sapiens; A498, Renal Cancer panel; single dose 10^−5 M; read-out: Growth inhibition %
# BT-549 = experiment: NCI-60 one-dose screen; assay type: cell-based; details: Homo sapiens; BT-549, Breast Cancer panel; single dose 10^−5 M; read-out: Growth inhibition %
# EKVX = experiment: NCI-60 one-dose screen; assay type: cell-based; details: Homo sapiens, Non-small cell lung panel, single dose 10^−5 M, read-out: Growth inhibition %
# HCT-116 [1] = experiment: NCI-60 one-dose screen; assay type: cell-based; details: Homo sapiens, read-out: Growth inhibition %
# HCT-15 = experiment: NCI-60 one-dose screen; assay type: cell-based; details: Homo sapiens; HCT-15, Colon Cancer panel; single dose 10^−5 M; read-out: Growth inhibition %
# HL-60(TB) = experiment: NCI-60 one-dose screen; assay type: cell-based; details: Homo sapiens, Leukemia panel, single dose 10^−5 M, read-out: Growth inhibition %
# HS 578T = experiment: NCI-60 one-dose screen; assay type: cell-based; details: Homo sapiens, Breast Cancer panel, single dose 10^−5 M, read-out: Growth inhibition %
# HT29 = experiment: NCI-60 one-dose screen; assay type: cell-based; details: Homo sapiens, HT-29; HT29, Colon Cancer panel; single dose 10^−5 M; read-out: Growth inhibition %
# KM12 = experiment: NCI-60 one-dose screen; assay type: cell-based; details: Homo sapiens; KM12, Colon Cancer panel; single dose 10^−5 M; read-out: Growth inhibition %
# M14 = experiment: NCI-60 one-dose screen; assay type: cell-based; details: Homo sapiens; M14, Melanoma panel; single dose 10^−5 M; read-out: Growth inhibition %
# MALME-3M = experiment: NCI-60 one-dose screen; assay type: cell-based; details: Homo sapiens, Melanoma panel, single dose 10^−5 M, read-out: Growth inhibition %
# MCF7 = experiment: NCI-60 one-dose screen; assay type: cell-based; details: Homo sapiens; MCF7, Breast Cancer panel; single dose 10^−5 M; read-out: Growth inhibition %
# MDA-MB-468 = experiment: NCI-60 one-dose screen; assay type: cell-based; details: Homo sapiens; MDA-MB-468, Breast Cancer panel; single dose 10^−5 M; read-out: Growth inhibition %
# MOLT-4 = experiment: NCI-60 one-dose screen; assay type: cell-based; details: Homo sapiens; MOLT-4, Leukemia panel; single dose 10^−5 M; read-out: Growth inhibition %
# NCI-H322M = experiment: NCI-60 one-dose screen; assay type: cell-based; details: Homo sapiens, Non-small cell lung panel, single dose 10^−5 M, read-out: Growth inhibition %
# NCI-H460 = experiment: NCI-60 one-dose screen; assay type: cell-based; details: Homo sapiens; NCI-H460, Non-small cell lung panel; single dose 10^−5 M; read-out: Growth inhibition %
# NCI-H522 = experiment: NCI-60 one-dose screen; assay type: cell-based; details: Homo sapiens; NCI-H522, Non-small cell lung panel; single dose 10^−5 M; read-out: Growth inhibition %
# PC-3 = experiment: NCI-60 one-dose screen; assay type: cell-based; details: Homo sapiens; PC-3, Prostate Cancer panel; single dose 10^−5 M; read-out: Growth inhibition %
# RPMI-8226 = experiment: NCI-60 one-dose screen; assay type: cell-based; details: Homo sapiens; RPMI-8226, Leukemia panel; single dose 10^−5 M; read-out: Growth inhibition %
# SF-539 = experiment: NCI-60 one-dose screen; assay type: cell-based; details: Homo sapiens; SF-539, CNS Cancer panel; single dose 10^−5 M; read-out: Growth inhibition %
# SK-MEL-28 = experiment: NCI-60 one-dose screen; assay type: cell-based; details: Homo sapiens; SK-MEL-28, Melanoma panel; single dose 10^−5 M; read-out: Growth inhibition %
# SR = experiment: NCI-60 one-dose screen; assay type: cell-based; details: Homo sapiens, Leukemia panel, single dose 10^−5 M, read-out: Growth inhibition %
# SW-620 = experiment: NCI-60 one-dose screen; assay type: cell-based; details: Homo sapiens; SW-620, Colon Cancer panel; single dose 10^−5 M; read-out: Growth inhibition %
# TK-10 = experiment: NCI-60 one-dose screen; assay type: cell-based; details: Homo sapiens; TK-10, Renal Cancer panel; single dose 10^−5 M; read-out: Growth inhibition %
# UACC-257 = experiment: NCI-60 one-dose screen; assay type: cell-based; details: Homo sapiens; UACC-257, Melanoma panel; single dose 10^−5 M; read-out: Growth inhibition %
# LOX IMVI = experiment: NCI-60 one-dose screen; assay type: cell-based; details: Homo sapiens, Melanoma panel, single dose 10^−5 M, read-out: Growth inhibition %
# HCT-116 [2] = experiment: MTT cell proliferation assay, HCT-116; details: for % Inhibition at 10 µM: 72 h MTT, means ± SD; for IC50: read-out: IC50 μM, 72 h MTT, means ± SD, three experiments
# Protocol: In the MTT assay, 96-well culture plates were used. A total of 7 × 10^4 cells per well were seeded, and test materials were added to the cells at various concentrations [47, 48]. Human cancer and non-cancer cell lines were purchased commercially from the American Type Culture Collection (ATCC). After 72 h, the cytotoxicity of the compounds and paclitaxel (as a positive control group) was detected using the MTT method (thiazolyl blue tetrazolium bromide, Sigma-M2128). Absorbance values at 570 and 620 nm (OD = OD570–OD620) were measured using an ELISA reader (Anthos Labtec Instruments, Salzburg, Austria).
# CCD-966SK = experiment: MTT cell proliferation assay, CCD-966SK; details: CCD966SK skin fibroblast; 10 µM; 72 h MTT
Structure (SMILES),IC50 (PDE5A),inhibition at 10 µM (PDE5A),inhibition at 10 µM (786-0),inhibition at 10 µM (A498),inhibition at 10 µM (BT-549),inhibition at 10 µM (EKVX),inhibition at 10 µM (HCT-116 [1]),inhibition at 10 µM (HCT-15),inhibition at 10 µM (HL-60(TB)),inhibition at 10 µM (HS 578T),inhibition at 10 µM (HT29),inhibition at 10 µM (KM12),inhibition at 10 µM (M14),inhibition at 10 µM (MALME-3M),inhibition at 10 µM (MCF7),inhibition at 10 µM (MDA-MB-468),inhibition at 10 µM (MOLT-4),inhibition at 10 µM (NCI-H322M),inhibition at 10 µM (NCI-H460),inhibition at 10 µM (NCI-H522),other results
"c1csc(-c2ccc(CNc3c4ccccc4nc4ccccc34)cc2)c1 [Compound 24, Acridin-9-yl-(4-thiophen-2-yl-benzyl)-amine]",> 10 µM,42.9 ± 5.35%,70%,102%,66.3%,41%,183%,166%,157%,39.4%,147%,73.7%,174%,182%,163%,173%,98%,49.4%,87.1%,71.1%,inhibition at 10 µM (PC-3): 76%; inhibition at 10 µM (RPMI-8226): 144%; inhibition at 10 µM (SF-539): 87.5%; inhibition at 10 µM (SK-MEL-28): 186%; inhibition at 10 µM (SR): 144%; inhibition at 10 µM (SW-620): 172%; inhibition at 10 µM (TK-10): 34.9%; inhibition at 10 µM (UACC-257): 137%; inhibition at 10 µM (LOX IMVI): 191%; % Inhibition at 10 µM (HCT-116 [2]): 57.14 ± 3.10%; IC50 (HCT-116 [2]): 7 ± 0.56 µM; % Inhibition at 10 µM (CCD-966SK): 47.41 ± 2.48%
"Clc1cccc(CNc2c3ccccc3nc3ccccc23)c1 [Compound 12, Acridin-9-yl-(3-chlorobenzyl)-amine]",6.29 ± 1.18 µM,62.2 ± 4.94%,74.8%,103%,40.9%,72.8%,91.3%,86%,91%,46.3%,91.4%,59.2%,64.5%,55%,99.1%,118%,98.9%,68.7%,85.8%,58.3%,inhibition at 10 µM (PC-3): 76.5%; inhibition at 10 µM (RPMI-8226): 124%; inhibition at 10 µM (SF-539): 90.7%; inhibition at 10 µM (SK-MEL-28): 33.8%; inhibition at 10 µM (SR): 104%; inhibition at 10 µM (SW-620): 88%; inhibition at 10 µM (TK-10): 47.9%; inhibition at 10 µM (UACC-257): 54.6%; inhibition at 10 µM (LOX IMVI): 98.2%; % Inhibition at 10 µM (HCT-116 [2]): 63.40 ± 7.54%; IC50 (HCT-116 [2]): 4.84 ± 0.05 µM; % Inhibition at 10 µM (CCD-966SK): 45.43 ± 0.42%
